The results in this text go back to patent publication US20230312551A1, “SALT OF 2-(SUBSTITUTED PYRIMIDINYL) THIAZOLE CARBOXAMIDE COMPOUND, AND COMPOSITION AND USE THEREOF” (SUNSHINE LAKE PHARMA CO., LTD., priority 2020, published 2023).

Data set [1] in a line: Stability test experiment A: suspended and stirred in water, XRPD. Format: physicochemical. The conditions noted are these: for Crystal form (XRPD) after stirring in water: suspended and stirred in water at room temperature for 24 h. As for the experimental part:
At room temperature, the test samples (50 mg) were added into EP tubes, water (1 mL) was added respectively. The mixture was suspended and stirred at room temperature for 24 h, then suction filtered, and dried for X-ray powder diffraction (XRPD) analysis and identification. Among them, the experimental results of phosphate crystal form A, phosphate crystal form B, phosphate crystal form C, phosphate crystal form G and phosphate crystal form H are shown in FIGS. 20-24.

The next data set in a line: Hygroscopicity test. In kind it is physicochemical. The conditions noted are these: 25° C. ± 1° C., RH 80% ± 2%, 24 hours. As for the experimental part:
1) A dry stoppered glass weighing bottle was placed in a suitable constant temperature desiccator (RH 80% ± 2%) at 25° C. + 1° C. the day before, and accurately weighed (m1).
2) An appropriate amount of the test sample was taken and spread in the above weighing bottle. The thickness of the test sample was generally about 1 mm, and it was precisely weighed (m2).
3) The weighing bottle was opened and placed together with the bottle cap under the above constant temperature and humidity conditions for 24 hours.
4) The weighing bottle was closed with the bottle cap, and accurately weighed (m3). Calculate: weight gain % = (m3-m2) / (m2-m1) × 100%.
5) Judgment of hygroscopicity results (Chinese Pharmacopoeia 2015 Edition Appendix 9103 Guidelines for the hygroscopicity test of drugs, experimental conditions: 25° C.±1° C., 80%±2% relative humidity): […]

Data set [2] in a line: Stability test experiment C: storage in PE bag and aluminum foil. The conditions noted are these: for Purity: HPLC. In kind it is physicochemical. As for the experimental part: 1.0 g of the test samples were packaged in a single-layer PE bag and aluminum foil, and fasten with cable ties. 6 packs were prepared in total and put in a stable box (40° C. ± 2° C., RH 75% ± 5%, or 25° C. ± 2° C., RH 60% ± 10%). Test samples were taken at 0, 3, and 6 months for HPLC and XRPD detection, respectively.

The nature of data set [3]: Stability test experiment B: high temperature, high humidity and light tests. As to conditions: for Purity: HPLC. In kind it is physicochemical. As for the experimental part:
(1) High temperature test: the test samples were taken into the flat weighing bottle, spread into a thin layer of ≤ 5 mm thick, and stored for 30 days at a humidity of 75% ± 5%, 40° C. ± 2° C. and/or 60° C. ± 2° C. On the 5th, 10th, and 30th days, samples were taken for detection according to the key stability inspection items: the color change of the sample was observed, the purity of the sample was determined by HPLC, and the crystal structure of the sample was determined by XRPD.
(2) High humidity test: the test samples were taken into the flat weighing bottle, spread into a thin layer of ≤ 5 mm thick, and stored for 30 days at 25° C., RH 90% ± 5% and/or RH 75% ± 5%. On the 5th, 10th, and 30th days, samples were taken for detection according to the key stability inspection items: the color change of the sample was observed, the purity of the sample was determined by HPLC, and the crystal structure of the sample was determined by XRPD.
(3) Light test: the test samples were taken into the flat weighing bottle, spread into a thin layer of ≤ 5 mm thick, and placed in a light box (with an ultraviolet lamp) with an open mouth. The test samples were stored under the condition of illuminance of 4500 ± 5001x and ultraviolet light ≥ 0.7w/m^2 for 30 days. Samples were taken on the 5th, 10th and 30th days. The color change of the sample was observed, the purity of the sample was determined by HPLC, and the crystal structure of the sample was determined by XRPD.

Data set [4] in a line: Pharmacokinetics test in Beagle dogs, oral capsules. In kind it is in vivo. The conditions noted are these: male Beagle dogs, oral capsule, 5 mg/kg. On the procedure:
The test samples were filled into capsules for oral administration.
Three 8-12 kg male Beagle dogs were taken orally administered capsules containing the test sample at a dose of 5 mg/kg, and blood was collected at time points of 0.25, 0.5, 1.0, 2.0, 4.0, 6.0, 8.0 and 24 h. Standard curve was plotted based on concentrations of the samples in a suitable range, the concentration of the test sample in the plasma sample was measured and quantified by AB SCIEX API4000 LC-MS / MS at MRM mode. Pharmacokinetic parameters were calculated according to drug concentration -time curve using a noncompartmental method by WinNonLin 6.3 software.

Where [5] appears, read: 25° C. ± 2° C., RH 60% ±10%, 3 months.
[6] abbreviates: 25° C. ± 2° C., RH 60% ±10%, 6 months.
Setting [7] is: 40° C. ± 2° C., RH 75% ±5%, 3 months.
[8] abbreviates: 40° C. ± 2° C., RH 75% ±5%, 6 months.
Where [9] appears, read: High humidity (25° C., RH 90% ± 5%), 5 days.
Where [10] appears, read: High humidity (25° C., RH 90% ± 5%), 10 days.
Where [11] appears, read: High humidity (25° C., RH 90% ± 5%), 30 days.
The mark [12] stands for this setting: High temperature (60° C., RH 75%±5%), 5 days.
Setting [13] is: High temperature (60° C., RH 75%±5%), 10 days.
Setting [14] is: High temperature (60° C., RH 75%±5%), 30 days.

As for `Cc1nc(-c2cnc(N3CCN(CCCc4c[nH]c5ccc(C#N)cc45)CC3)nc2)sc1C(N)=O` [Example 5, 2-(2-(4-(3-(5-cyano-1H-indol-3-yl)propyl)piperazin-1-yl)pyrimidin-5-yl)-4-methylthiazol-5-carboxamide], in data set [1] (listed as phosphate crystal form G), the “Crystal form (XRPD) after stirring in water” value (“Crystal form (XRPD)” for short) was “crystal form changed”.

Consider `Cc1nc(-c2cnc(N3CCN(CCCc4c[nH]c5ccc(C#N)cc45)CC3)nc2)sc1C(N)=O` [Example 4, 2-(2-(4-(3-(5-cyano-1H-indol-3-yl)propyl)piperazin-1-yl)pyrimidin-5-yl)-4-methylthiazol-5-carboxamide], for which, in data set [1] (listed as phosphate crystal form C), the “Crystal form (XRPD)” value was “crystal form changed”.

With `Cc1nc(-c2cnc(N3CCN(CCCc4c[nH]c5ccc(C#N)cc45)CC3)nc2)sc1C(N)=O` [Example 6, 2-(2-(4-(3-(5-cyano-1H-indol-3-yl)propyl)piperazin-1-yl)pyrimidin-5-yl)-4-methylthiazol-5-carboxamide], the “Crystal form (XRPD)” value in data set [1] (listed as phosphate crystal form H) is listed as “crystal form changed”.

For the molecule `Cc1nc(-c2cnc(N3CCN(CCCc4c[nH]c5ccc(C#N)cc45)CC3)nc2)sc1C(N)=O` [Example 3, 2-(2-(4-(3-(5-cyano-1H-indol-3-yl)propyl)piperazin-1-yl)pyrimidin-5-yl)-4-methylthiazol-5-carboxamide], the “Crystal form (XRPD)” value in data set [1] (listed as phosphate crystal form B) was “crystal form changed”.

As to `Cc1nc(-c2cnc(N3CCN(CCCc4c[nH]c5ccc(C#N)cc45)CC3)nc2)sc1C(N)=O` [Example 2, 2-(2-(4-(3-(5-cyano-1H-indol-3-yl)propyl)piperazin-1-yl)pyrimidin-5-yl)-4-methylthiazol-5-carboxamide], the “Conclusion (hygroscopicity feature)” value in the data set “Hygroscopicity test” is listed as “Slightly hygroscopicity (Less than 2% but not less than 0.2%)”. The molecule further showed a The hygroscopicity gain in the data set “Hygroscopicity test” of 0.32%. In addition, the Outward result in data set [2] (0 month), in data set [2] (setting [5]), in data set [2] (setting [6]), in data set [2] (setting [7]), in data set [2] (setting [8]) and in data set [3] (0 day) was “Light yellow solid” throughout. In addition, the Outward result in data set [3] (setting [9]), in data set [3] (setting [10]), in data set [3] (setting [11]), in data set [3] (setting [12]), in data set [3] (setting [13]) and in data set [3] (setting [14]) was “Light yellow solid” each time. The Outward result in data set [3] (Light, 5 days) is given as “Yellow solid”; in data set [3] (Light, 10 days), “Yellow solid”; in data set [3] (Light, 30 days) it was “Yellow solid”. Also, the Purity is 99.62% in data set [2] (0 month); 99.63% in data set [2] (setting [5]); 99.64% in data set [2] (setting [6]); 99.63% in data set [2] (setting [7]); 99.64% in data set [2] (setting [8]); 99.24% in data set [3] (0 day). Besides, the Purity in data set [3] (setting [9]) is on record as 99.27%; in data set [3] (setting [10]) it was 99.21%; in data set [3] (setting [11]), 99.22%; in data set [3] (setting [12]), 99.26%; in data set [3] (setting [13]), 99.23%; in data set [3] (setting [14]), 99.24%. Moreover, the Purity was 99.25% in data set [3] (Light, 5 days); 99.21% in data set [3] (Light, 10 days); 99.10% in data set [3] (Light, 30 days). Moreover, in data set [2] (stored up to 6 months at 40° C./RH 75% or 25° C./RH 60% in PE bag and aluminum foil), the “Crystal structure (XRPD)” value is given as “have not changed”. The “Crystal structure after stirring in water” value in data set [1] (stirred in water at room temperature or under heating conditions) is listed as “does not change”. Besides, the “Crystal form (XRPD)” value in data set [1] (listed as phosphate crystal form A) is reported as “crystal form did not change”. The XRPD pattern entry in data set [3] (high temperature (60° C., RH 75% ± 5%), high humidity (25° C., RH 90% ± 5%) or light, 30 days) is “basically unchanged”. For the same molecule, the peak level in data set [4] (dog, plasma) (Cmax) was 496 ng/mL. The time to peak (Tmax) in data set [4] (dog, plasma) is 1.67 h. This molecule also showed an AUClast in data set [4] of 5240 h^∗ng/ml.
